SMILES strings stand for the structures.

Series [1] in a line: Particle size distribution by laser diffraction (Malvern Mastersizer 2000). As to conditions: no unit in Table 4; d values in micrometers, volume distribution. The format is physicochemical. The procedure: The particle size distribution of 8-(1,3-Dimethyl-1H-pyrazol-4-yl)-1-(Sa)-(3-fluoro-5-methoxy-pyridin-4-yl)-7-methoxy-3-methyl-1,3-dihydro-imidazo[4,5-c]quinolin-2-one is measured by laser diffraction on a Malvern Mastersizer 2000 (wet method using Hydro 2000S; sample amount of 100 mg dispersed in 5 ml silicone oil; stirrer speed 2000 rpm, no sonication, measuring time of 7.5 s; obscuration of 10-15%). The d values refer to the particle size distribution in micrometers […] whereby the dl 0 value refers to the particle diameter in micrometers at which 10 percent of the volume distribution of the particles are smaller than such value, the d50 value refers to the particle diameter in micrometers at which 50 percent of the volume distribution of the particles are smaller than such value and the d90 value refers to the particle diameter in micrometers at which 90 percent of the volume distribution of the particles are smaller than such value.

The nature of series [2]: Thermodynamic stability of anhydrous polymorphic forms. The format is physicochemical. To be noted: among anhydrous Forms A1, A2, A3.
Another series is described as follows: Microsomal clearance. The format is in vitro ADME. To be noted: compared to the (Ra) atropisomer and the unseparated compound.
Series [3] can be described thus: Selectivity compared to the other atropisomer and the mixture. To be noted: compared to the (Ra) atropisomer and the unseparated compound.
Another series has as its target PDE4A1A (Homo sapiens, UniProt P27815). The experiment in a line: Inhibition of PDE4A1A. To be noted: compared to the (Ra) atropisomer and the unseparated compound. The format is biochemical.
For another series, the system named is ATM pCHK2 pathway. The experiment in a line: Inhibition of the ATM pCHK2 pathway. The format is cell-based. As to conditions: compared to the (Ra) atropisomer and the unseparated compound.
The target in series [4] is phosphodiesterase (PDE) 2A1 (Homo sapiens, UniProt O00408). The experiment in a line: Inhibition of PDE2A1. The format is biochemical. As to conditions: compared to the (Ra) atropisomer and the unseparated compound.
In the next series the target is PDE4D2 (Homo sapiens, UniProt Q08499). The experiment in a line: Inhibition of PDE4D2. The format is biochemical. To be noted: compared to the (Ra) atropisomer and the unseparated compound.
Chain of PDE4D2 (Q08499 303-809 limits assumed): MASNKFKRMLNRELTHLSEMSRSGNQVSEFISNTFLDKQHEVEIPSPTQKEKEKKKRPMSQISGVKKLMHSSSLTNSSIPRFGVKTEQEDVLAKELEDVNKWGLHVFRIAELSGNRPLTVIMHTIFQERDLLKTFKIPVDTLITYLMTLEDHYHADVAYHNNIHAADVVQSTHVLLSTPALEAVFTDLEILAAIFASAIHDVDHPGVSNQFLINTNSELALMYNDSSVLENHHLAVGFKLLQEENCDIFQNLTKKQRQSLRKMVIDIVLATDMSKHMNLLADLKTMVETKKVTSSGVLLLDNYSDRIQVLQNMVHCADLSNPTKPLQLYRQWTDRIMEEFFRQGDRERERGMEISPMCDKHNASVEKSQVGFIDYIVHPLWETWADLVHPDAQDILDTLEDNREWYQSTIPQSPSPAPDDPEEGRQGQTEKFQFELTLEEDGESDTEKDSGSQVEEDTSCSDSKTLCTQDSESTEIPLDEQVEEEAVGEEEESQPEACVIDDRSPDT

Chain of phosphodiesterase (PDE) 2A1 (O00408 1-920 isoform O00408-2): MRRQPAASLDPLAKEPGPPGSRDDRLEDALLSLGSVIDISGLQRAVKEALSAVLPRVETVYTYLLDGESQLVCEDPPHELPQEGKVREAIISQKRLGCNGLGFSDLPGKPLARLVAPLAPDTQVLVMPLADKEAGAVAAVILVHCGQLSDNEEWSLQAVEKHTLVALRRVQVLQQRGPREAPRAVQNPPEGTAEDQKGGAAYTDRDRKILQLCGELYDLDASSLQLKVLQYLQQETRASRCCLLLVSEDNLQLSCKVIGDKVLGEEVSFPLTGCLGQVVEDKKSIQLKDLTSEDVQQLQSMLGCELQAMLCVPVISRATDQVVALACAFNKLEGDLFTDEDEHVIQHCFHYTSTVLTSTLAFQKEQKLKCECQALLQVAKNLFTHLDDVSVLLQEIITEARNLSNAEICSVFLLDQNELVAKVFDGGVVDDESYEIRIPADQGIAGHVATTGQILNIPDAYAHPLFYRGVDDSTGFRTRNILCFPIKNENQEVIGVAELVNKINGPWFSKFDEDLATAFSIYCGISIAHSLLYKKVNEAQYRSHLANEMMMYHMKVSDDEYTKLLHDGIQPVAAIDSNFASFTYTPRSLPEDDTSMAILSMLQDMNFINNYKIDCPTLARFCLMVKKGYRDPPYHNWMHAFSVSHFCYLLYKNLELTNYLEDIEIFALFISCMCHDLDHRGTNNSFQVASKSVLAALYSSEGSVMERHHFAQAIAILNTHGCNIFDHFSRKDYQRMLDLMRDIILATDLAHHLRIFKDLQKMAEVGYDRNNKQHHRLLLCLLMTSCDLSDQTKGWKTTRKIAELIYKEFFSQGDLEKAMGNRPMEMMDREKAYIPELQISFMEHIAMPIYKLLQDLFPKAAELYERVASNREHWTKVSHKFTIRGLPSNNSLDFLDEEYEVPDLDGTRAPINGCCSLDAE
Chain of PDE4A1A (P27815 1-647 isoform P27815-4): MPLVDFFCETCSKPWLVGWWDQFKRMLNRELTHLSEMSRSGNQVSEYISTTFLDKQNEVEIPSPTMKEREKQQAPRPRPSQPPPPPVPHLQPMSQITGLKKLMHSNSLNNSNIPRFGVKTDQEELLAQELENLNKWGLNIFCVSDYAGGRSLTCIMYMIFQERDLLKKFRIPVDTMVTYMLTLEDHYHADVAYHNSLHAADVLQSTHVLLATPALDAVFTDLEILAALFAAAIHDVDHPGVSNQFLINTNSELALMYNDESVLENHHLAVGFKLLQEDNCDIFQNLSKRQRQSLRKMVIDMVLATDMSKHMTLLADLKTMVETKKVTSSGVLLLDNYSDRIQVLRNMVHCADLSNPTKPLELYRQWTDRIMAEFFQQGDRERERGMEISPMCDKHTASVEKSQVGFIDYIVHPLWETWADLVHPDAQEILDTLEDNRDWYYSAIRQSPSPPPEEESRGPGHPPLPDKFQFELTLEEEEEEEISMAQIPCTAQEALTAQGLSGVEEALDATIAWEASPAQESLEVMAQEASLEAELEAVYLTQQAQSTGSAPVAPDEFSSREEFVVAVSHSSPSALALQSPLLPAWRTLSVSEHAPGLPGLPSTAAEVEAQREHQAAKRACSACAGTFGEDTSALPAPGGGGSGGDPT

In series [1], `COc1cc2ncc3c(c2cc1-c1cn(C)nc1C)n(-c1c(F)cncc1OC)c(=O)n3C` (atropisomer, axis not shown; (Sa)) [Compound 1 Anhydrous Form A2 OPT, 8-(1,3-Dimethyl-1H-pyrazol-4-yl)-1-(Sa)-(3-fluoro-5-methoxy-pyridin-4-yl)-7-methoxy-3-methyl-1,3-dihydro-imidazo[4,5-c]quinolin-2-one] showed a Dv10 of 19 µm, a Dv50 of 64 µm and a Dv90 of 202 µm.
For `COc1cc2ncc3c(c2cc1-c1cn(C)nc1C)n(-c1c(F)cncc1OC)c(=O)n3C` (atropisomer, axis not shown; (Sa)) [Compound 1 Anhydrous Form A2, 8-(1,3-Dimethyl-1H-pyrazol-4-yl)-1-(Sa)-(3-fluoro-5-methoxy-pyridin-4-yl)-7-methoxy-3-methyl-1,3-dihydro-imidazo[4,5-c]quinolin-2-one], in series [1], the Dv10 came to 9 µm, the Dv50 amounted to 63 µm and the Dv90 turned out to be 599 µm. The “Thermodynamic stability of the solid form” value in series [2] is recorded as “thermodynamically most stable anhydrous form”.
Take `COc1cc2ncc3c(c2cc1-c1cn(C)nc1C)n(-c1c(F)cncc1OC)c(=O)n3C` (atropisomer, axis not shown; (Sa)) [Compound 1, 8-(1,3-Dimethyl-1H-pyrazol-4-yl)-1-(Sa)-(3-fluoro-5-methoxy-pyridin-4-yl)-7-methoxy-3-methyl-1,3-dihydro-imidazo[4,5-c]quinolin-2-one]: the Microsomal clearance values result in “Microsomal clearance” was “best microsomal clearance values”. For the same molecule, the Selectivity result in series [3] is “better selectivity”. For the same molecule, on PDE4A1A, the “Inhibition of PDE4A1A” value is “lowest inhibition”. The “Inhibition of the ATM pCHK2 pathway” value in the series with ATM pCHK2 pathway was “at lower concentrations”. Further, the “Inhibition of phosphodiesterase (PDE) 2A1” value in series [4] is “lowest inhibition”. For the same molecule, the “Inhibition of PDE4D2” value on PDE4D2 is on record as “lowest inhibition”.
